SMILES strings stand for the structures.

Holding throughout (type): in vivo, human
The test system of one assay is sRAGE. Nature of the assay: sRAGE study in obese patients treated twice weekly for 81 days. To be noted: 0.6, 1.2 or 2.4 mg twice weekly for 81 days, FIG. 1. The method, then: (§1) Obese patients were treated in three cohorts with intravenous administration of a formulation of the compound A. The compound was intravenously administered to each patient of a cohort (except for a placebo cohort) twice weekly for 81 days. Each of patients in the three non-placebo cohorts received either 0.6 mg of compound A (cohort 1); 1.2 mg (cohort 2); or 2.4 mg (cohort 3) doses of the compound at the time of administration. The trial was conducted under the appropriate government and medical supervision.

The test system of assay [1] is adiponectin. Nature of the assay: Plasma adiponectin after twelve weeks (81 days) of treatment in obese patients. To be noted: doses 0 (placebo), 0.6, 1.2 and 2.4 mg, FIG. 2. The method, then: as §1
In assay [2] the test system is adiponectin. Kind of assay: Plasma adiponectin (total, ALPCO ELISA; high molecular weight form) after 4 weeks of intravenous treatment in obese patients. In general terms: ELISA stands for enzyme-linked immunosorbent assay.

As for `CO[C@@H]1[C@H](OC(=O)/C=C/c2ccc(OCCN(C)C)cc2)CC[C@]2(CO2)[C@H]1[C@@]1(C)O[C@@H]1CC=C(C)C.O=C(O)C(=O)O` [6-O-(4-dimethylaminoethoxy)cinnamoyl fumagillol oxalate], the “levels of sRAGE in patients' serum” value in the assay with sRAGE is on record as “increase”.
Regarding `CO[C@@H]1[C@H](OC(=O)C=Cc2ccc(OCCN(C)C)cc2)CC[C@]2(CO2)[C@H]1[C@@]1(C)O[C@@H]1CC=C(C)C` [Compound A, O-(4-dimethylaminoethoxycinnamoyl)fumagillol], the plasma adiponectin entry in the assay with adiponectin [1] is “dose proportional increases”. Also, the total plasma adiponectin entry with adiponectin [2] (after 4 weeks of intravenous treatment versus placebo, ALPCO ELISA, FIG. 3) is given as “increases in total plasma adiponectin”. The “high molecular weight form of adiponectin” value in the assay with adiponectin [2] (after 4 weeks of intravenous treatment with 1.9 mg versus placebo, FIG. 4) was “increases in the high molecular weight form of adiponectin”.
